Values joined by “and” are separate entries in the source; they are usually repeats but may differ in a detail not shown here. Equal values may be shown once. Where a name gives a salt, the structure may show the parent alone.
Tests used:
HDAC [1] = test: Global HDAC activity analysis in HT-29 cells; format: cell-based; settings: for inhibition of total HDAC activity: whole HT-29 cells and HT-29 cell lysate tested, sentence does not say which
Procedure: Pure cultures of 43043 bacteria were grown anaerobically in YCFA broth until they reached their stationary growth phase. Cultures were centrifuged at 5,000×g for 5 minutes and the cell-free supernatant (CFS) was filtered using a 0.2 μM filter (Millipore, UK). 1 mL aliquots of the CFS were stored at −80° C. until use. Sodium butyrate, hexanoic and valeric acid were obtained from Sigma Aldrich (UK) and suspensions were prepared in YCFA broth.
(§1) Whole cells and cell free supernatants of stationary phase 43043 cultures were isolated by centrifugation and filtering in a 0.22 uM filter. HT-29 cells were used 3 days' post confluence and stepped down in 1 mL DTS 24 hours prior to commencement of the experiment. The HT-29 cells were challenged with 10% cell free supernatant diluted in DTS and this was left to incubate for 48 hours. […] were then extracted using the Sigma Aldrich Nuclease extraction kit and samples were snap frozen prior to HDAC activity measurement. HDAC activity kit was assessed fluorometrically using the Sigma Aldrich (UK) kit.
(§2) To investigate which metabolites were responsible for the strain-induced HDAC inhibition, different concentrations of hexanoic acid, valeric acid and sodium butyrate were measured for their HDAC inhibition on whole HT-29 cells and on HT-29 cell lysate.

HDAC [2] = test: HDAC inhibition on HT-29 cell lysate; format: biochemical
Procedure: as §1, §2

[3] = tested on: DSS-induced colitis mouse model; test: DSS-induced colitis mouse model, ileum histology; format: in vivo; design: key to Erosion (epithelial cell damage) / Depletion of goblet cells / Edema / Leucocytes Infiltration: 0: None; Minimal <10%; Mild 10-25%; 3: Moderate 26-50%; 4: Marked >50%; COLITIS SCORING (sum) / COLITIS SCORING mean ± SEM: scale not given here; settings: Day 7; for COLITIS SCORING mean ± SEM: group mean, n = 9, 3% DSS; for Depletion of goblet cells / Edema / Erosion (epithelial cell damage) / Leucocytes Infiltration: ileum histology score 0-4, individual mouse; for COLITIS SCORING (sum): sum of the four ileum histology scores, individual mouse
Procedure: The objective of this study was to determine the prophylactic efficacy of R. intestinalis strain 43043 in a DSS-induced colitis mouse model, upon repeated oral administration.
Tacrolimus was dosed at 1 mg/kg/day
Valproic acid was dosed at 200 mg/kg/day
PBS, YCFA and bacterial cultures were dosed at 200 μL/day
Each of sixty three, 6 week old healthy male C57BL/6J mice were obtained from Charles River (France) and individually identified and labelled with a specific code. Each treatment group (9 animals/group) were housed in three different cages.
Days −7 to Day −1: Treatment with bacteria and reference substances according the treatment table above • Once daily oral administration of PBS, YCF A or Bacteria—200 μL per mouse • Once daily oral administration of Valproic acid at 200 mg/kg/day under a volume of 10 mL/kg From Day O to Day+7: DSS administration • Administration of 3% DSS in the drinking water From Day O to Day+6: Treatment with bacteria and reference substances • Once daily oral administration of PBS, YCFA or Bacteria—200 μL per mouse • Once daily oral administration of Valproic acid—200 mg/kg in sterile distilled water—10 mL/kg • Once daily SC administration of Tacrolimus—1 mg/kg in sterile 1% Tween80, 0.9% NaCl—10 mL/kg Day+7: Sacrifice of all groups and tissue harvesting • Euthanasia of animals was performed under gas anesthesia (Isoflurane) followed by exsanguination and cervical dislocation. Euthanasia methods used are those recommended for mice and rats by European directive 20 I 0/63/CE and the procedure describing euthanasia methods was approved by IACUC. • Laparotomy and ileum harvesting, just upstream of the caecum (from 0.5 cm and on)—all tissue harvested from exactly the same area between all mice: • 1.5 cm swiss-rolled ileum was harvested for histology, the closest to the caecum
Ileum Swiss-rolls specimens were embedded in paraffin and sections of 5 μm thickness were cut and mounted on SuperFrost Ultra plus glass slides. HP (Hematoxylin-Phloxin) staining & AB-PAS (Alcian Blue-Periodic Acid Schiff) staining were performed to visualize histomorphologic changes. A scoring based on edema, erosion, loss of crypts/goblet cells and infiltrates was established on each animal, using the criteria in the following table: […]

[4] = tested on: graft versus host disease (GVHD) induced in Balb/C mice; test: Graft versus host disease (GVHD) induced in Balb/C mice; format: in vivo, mouse; settings: for mean body weight over the course of the study: compared with Group 4 (PBS, TBI + allogeneic transfer), daily dosing Days -14 to 30
Description: Male Balb/C mice (BALB/cAnNCrl; 6-8 weeks old; n=125) with an average starting body weight (±SEM) of 20.67±0.11 g were obtained from Charles River Laboratories (Wilmington, Mass.). An additional n=75 male C57Bl/6 (C57Bl/6NCrl; 6-8 weeks old) were obtained from the same vendor. Animals were acclimatized prior to study commencement. During this period, the animals were observed daily in order to reject any that presented in poor condition.
Animals were randomized into 5 groups at the start of the study. Each group comprised between 8 and 12 mice. Each group was further sub-divided into cohorts A and B (n=4-6 mice per group per cohort); cohorts had staggered disease timelines.
All animals were weighed and randomized by weight into treatment groups prior to study start. Prior to GVHD induction on Days −1 and 0, all animals were pre-treated (P0) with PBS (Groups 1-4), bacterial strain 43043 (Group 5), or Butyrate salt control (Group 6) daily starting on Day −14. Butyrate was used as a positive control as butyrate deficit has been identified in the gut of GVHD patients. Treatments were administered to groups at random, and group treatments were alternated daily to prevent the same groups from being treated at the same time each day. Once test article dosing had begun, care was taken to minimize group cross-contamination: gloves were changed by the technician between treatment groups, and were sprayed with 70% isopropyl alcohol between each cage of the same group.
GVHD was induced in n=84 Balb/C mice (Groups 4-10) using a single acute dose of 8 Gy of total body irradiation (TBI) on Day −1. On Day 0, these recipient mice were given an intravenous injection of a combination of T cell depleted bone marrow cells and splenic cells from donor C57Bl/6 mice in PBS. Bone marrow cells were isolated using standard flushing practices, and were T cell depleted using the cell surface T cell antigen CD3, with a CD3-biotin kit (Miltenyi Biotec catalog 130-094-973). Splenocytes were isolated using Miltenyi GentleMACS Dissociators. Animals in Group 1 served as naïve controls and received neither TBI nor cell transfer. […] Animals in Group 3 served as syngeneic adoptive transfer controls; these animals received 8 Gy of TBI on Day −1, and an intravenous injection of a combination of T cell depleted bone marrow cells and splenic cells from donor Balb/C mice in sterile PBS.
Daily test article dosing continued for the duration of the study (Days −14 to 30). Animal survival was recorded daily, as an indication of GVHD severity. […] The GVHD score was assessed by a standard scoring system based on five criteria (Table 21): percentage of weight change, posture (hunching), activity, fur texture, and skin integrity (maximum score=10). […]

Row | Structure (SMILES) | COLITIS SCORING mean ± SEM [3] | Depletion of goblet cells ([3]; 3% DSS) | Edema ([3]; 3% DSS) | Erosion (epithelial cell damage) ([3]; 3% DSS) | Leucocytes Infiltration ([3]; 3% DSS) | COLITIS SCORING (sum) ([3]; 3% DSS) | inhibition of total HDAC activity (HDAC [1]) | mean body weight over the course of the study [4] | further results
1 | CCCC(=O)[O-].[Na+] [sodium butyrate, Sodium butyrate] |  |  |  |  |  |  |  |  | inhibition of HDAC activity (HDAC [1]; on whole HT-29 cells): significant (P<0.05) inhibition of HDAC activity; inhibition of HDAC activity (HDAC [2]): significant (P<0.05) inhibition of HDAC activity
2 | CCCC(CCC)C(=O)O [Valproic acid, Valproic Acid] | 0.67 ± 0.10 | 0 | 0 | 0 | 2 (Mild 10-25%) (2×) and 1 (Minimal <10%) (2×) and 0 (5×) | 2 (2×) and 1 (2×) and 0 (5×) |  |  | 
3 | CCCCC(=O)O [Valeric acid, valeric acid] |  |  |  |  |  |  | inhibited total HDAC activity |  | 
4 | CCCC(=O)O [Butyrate salt] |  |  |  |  |  |  |  | No significant differences in mean body weight | Mean colitis severity scores (endoscopy) ([4]; Day 29, as compared to naïve mice (Group 1)): increased; mean GVHD scores ([4]; Days 0 to 30, AUC, compared to Group 3 (syngeneic transfer), with and without scores carried forward): significantly increased mean GVHD scores as compared to Group 3
5 | C=CC[C@@H]1/C=C(\C)C[C@H](C)C[C@H](OC)[C@H]2O[C@@](O)(C(=O)C(=O)N3CCCC[C@H]3C(=O)O[C@H](/C(C)=C/[C@@H]3CC[C@@H](O)[C@H](OC)C3)[C@H](C)[C@@H](O)CC1=O)[C@H](C)C[C@@H]2OC [Tacrolimus] | 0.44 ±0.08 | 0 | 0 | 0 | 0 (6×) and 2 (Mild 10-25%) and 1 (Minimal <10%) (2×) | 0 (6×) and 2 and 1 (2×) |  | same trend was observed | leukocyte infiltration in the ileum ([3]; group comparison in text, 3% DSS): reduced leukocyte infiltration comparable to controls
6 | CCCCCC(=O)O [hexanoic acid] |  |  |  |  |  |  | did show significant inhibitory activity |  | 
